The values below come from PubChem BioAssay (NCI).

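Protocol summary: plate cells (96-well), add compound at 5 concentrations, incubate 48 h, interpolate endpoints linearly. TGI: total growth inhibition.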

Holding throughout (assay): NCI tumour cell line growth inhibition, 48 h
Test [1] deals with HT29 colon.
Test [2] concerns OVCAR-8 ovarian.
For test [3], the system named is NCI-H23 lung.
For test [4], the system named is K-562 leukemia.
Test [5] has as its system SF-295 CNS.
The subject of test [6] is OVCAR-5 ovarian.
For test [7], the system named is TK-10 renal.
In test [8] the test system is SF-268 CNS.
Test [9] relates to SK-MEL-2 melanoma.

Turning to `COC(=O)c1ccc(N/C=C(/C#N)c2ccsc2)cc1`, the TGI is 25.3 µM in [1]; 19.5 µM in test [2]; 24.5 µM in [3]; above 100 µM in test [4]; 19.9 µM in [5]; above 100 µM in [6]. For the same compound, the TGI in [7] is 30.7 µM; in test [8], 37 µM; in test [9], 50.7 µM.

Take `COc1cc2ccnc(-c3n[nH]c4cc(OC)c(OC)cc34)c2cc1OC`: the TGI in test [1], in [2], in [3], in test [4], in [5] and in test [6] was above 100 µM in each case. The TGI in [7], in test [8] and in test [9] was above 100 µM throughout.

`CCCCCCCCCCCc1cc(=O)c2c(O)cccc2o1`: the TGI in [1], in test [2], in test [3], in [4], in test [5] and in test [6] was above 100 µM each time. The TGI in [7], in [8] and in [9] was above 100 µM each time.

For `CC(=O)Nc1ccc(S(=O)(=O)N/N=C(\C)CN2C(=O)c3ccccc3C2=O)cc1`, the TGI in test [1], in test [2], in test [3], in [4], in [5] and in test [6] was above 100 µM each time. Moreover, the TGI in [7] and in test [9] was above 100 µM throughout.

Regarding `O=C(CC(=O)c1cccc2ccccc12)C(=O)Nc1nccs1`, the TGI in [1], in test [2], in test [3], in [4], in test [5] and in test [6] was above 100 µM throughout. The TGI in test [7], in test [8] and in test [9] was above 100 µM each time.

As to `CC/C(=N/O)C(C)C(=O)CCC(=O)Nc1ccc(Cl)cc1` (stereo unspecified), the TGI in [1], in test [2], in [3], in test [4], in test [5] and in test [6] was above 100 µM in each case. The TGI in test [7], in test [8] and in [9] was above 100 µM in each case.

For `CC(=O)NC(CCCCN(Cc1ccccc1)C(=O)N(C)N=O)C(=O)NCc1ccccc1` (stereo unspecified), the TGI in [1], in test [2], in test [3], in test [4], in test [5] and in test [6] was above 100 µM in each case. The TGI in test [7], in test [8] and in test [9] was above 100 µM in each case.

With `[N-]=[N+]=Nc1nnc(CCCCc2nnc(N=[N+]=[N-])o2)o1`, the TGI in test [1], in test [2], in test [3], in test [4], in test [5] and in test [6] was above 100 µM in each case. For the same compound, the TGI in test [7], in test [8] and in test [9] was above 100 µM each time.

As to `Nc1ncnc2c1N=CN(Oc1ccccc1)N2`, the TGI in test [1], in test [2], in test [3], in test [4], in test [5] and in test [6] was above 100 µM throughout. Besides, the TGI in test [7] and in test [9] was above 100 µM each time.

As for `C=CCC(O)c1cc(OC)ccc1OC` (stereo unspecified), the TGI in test [1], in test [2], in test [4], in test [5], in test [6] and in test [7] was above 100 µM in each case. Moreover, the TGI in [8] and in test [9] was above 100 µM in each case.

For the compound `CC(C)=CC1(C)/C(=N\O)C(C)(CC(C)C)C(=O)N1O` (stereo unspecified), the TGI in [1], in test [2], in test [3], in [4], in test [5] and in [6] was above 100 µM in each case. Further, the TGI in [7] and in test [9] was above 100 µM throughout.

As to `CC1=C(C(=O)NCc2ccccc2)C(c2ccc(N(C)C)cc2)C(C(=O)NCc2ccccc2)=C(C)N1`, the TGI in [1], in test [2], in [3], in test [4], in test [5] and in test [6] was above 100 µM each time. Also, the TGI in test [7] and in test [9] was above 100 µM in each case.

For `CNC(=O)NCCCCC(NC(=O)OCc1ccccc1)C(=O)OCc1ccccc1` (stereo unspecified), the TGI was above 100 µM in [1]; 67.2 µM in test [2]; 67.4 µM in test [3]; above 100 µM in test [4]; 50.3 µM in test [5]; above 100 µM in [6]. For the same compound, the results for the TGI in test [7] and in test [9] were 52.6 µM and 61.1 µM, respectively.
